Our source for the TGI values is PubChem BioAssay (NCI).

The structures appear in SMILES notation.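 Tested at 5 concentrations; 48 h exposure; 96-well plates; endpoints linearly interpolated, else capped at highest concentration. Definition used: TGI = concentration required for complete inhibition of growth.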

Some test systems named below: SN12C renal; SK-OV-3 ovarian; SF-295 CNS; COLO 205 colon; U251 CNS; NCI-H522 lung; LOX IMVI melanoma; RXF 393 renal; OVCAR-3 ovarian; HS 578T breast; EKVX NSCLC; DU-145 prostate; UO-31 renal; MOLT-4 leukemia; SNB-19 CNS; MDA-MB-435.
Common to all, as to experiment: NCI tumour cell line growth inhibition, 48 h

`CC(C)(C)OC(=O)CCC1NC(=O)[C@@H]2Cc3c([nH]c4ccccc34)C(c3ccccc3)N2C1=O` (stereo partly drawn): the TGI with SN12C renal was 53.1 µM; in the assay on SK-OV-3 ovarian, more than 100 µM; in the assay on SF-295 CNS, 37.8 µM; in the assay on COLO 205 colon, 43.7 µM; in the assay with U251 CNS, 43.3 µM; with NCI-H522 lung it was 54.1 µM. Also, the TGI was 36.3 µM in the assay with LOX IMVI melanoma; 45.7 µM in the assay on RXF 393 renal; 48.5 µM in the assay with OVCAR-3 ovarian; 58.3 µM with HS 578T breast; more than 100 µM with EKVX NSCLC; more than 100 µM with DU-145 prostate. For the same molecule, the TGI in the assay on UO-31 renal was more than 100 µM; with MOLT-4 leukemia, more than 100 µM; with SNB-19 CNS it was more than 100 µM; in the assay on MDA-MB-435 it was 52.1 µM.
As to `Brc1ccc2[nH]cc([C@@H]3CN[C@@H](c4c[nH]c5ccc(Br)cc45)CN3)c2c1`, the TGI was determined as 17.8 µM with SN12C renal; 25.7 µM in the assay with SK-OV-3 ovarian; 14.7 µM in the assay on SF-295 CNS; 3.69 µM with COLO 205 colon; 11.2 µM in the assay with U251 CNS; 4.39 µM with NCI-H522 lung. The TGI with LOX IMVI melanoma was 3.38 µM; with RXF 393 renal, 24.5 µM; in the assay with OVCAR-3 ovarian, 18.4 µM; in the assay on HS 578T breast, 29.6 µM; with EKVX NSCLC, 20.3 µM; in the assay with DU-145 prostate, 12.6 µM. The TGI with UO-31 renal worked out at 9.47 µM; in the assay with MOLT-4 leukemia it was 4.51 µM; with SNB-19 CNS, 24.3 µM; with MDA-MB-435, 11.9 µM.
On to `CCN1CCC(O)(/C=C/c2cccc(C)c2)C(C(=O)/C=C/c2cccc(C)c2)C1` (stereo not drawn), for which the TGI in the assay with SN12C renal was 7.04 µM; in the assay with SK-OV-3 ovarian it was 11.4 µM; in the assay on SF-295 CNS it was 4.51 µM; with COLO 205 colon it was 4.67 µM; with U251 CNS, 3.31 µM; in the assay with NCI-H522 lung it was 4.65 µM. The TGI in the assay on LOX IMVI melanoma was 5.02 µM; in the assay on RXF 393 renal it was 3.57 µM; in the assay with OVCAR-3 ovarian, 12.4 µM; with HS 578T breast it was 4.97 µM; with EKVX NSCLC it was 4.25 µM; with DU-145 prostate, 13.8 µM. In addition, the TGI in the assay on UO-31 renal was 3.06 µM; in the assay with MOLT-4 leukemia it was more than 21.5 µM; in the assay with SNB-19 CNS, 15.4 µM; in the assay on MDA-MB-435, 4.61 µM.
In the case of `Cc1ccc(C2=NN=C3C(c4ccccc4)=Nc4ccccc4N3C2)cc1`, the TGI was more than 100 µM with SN12C renal; 85.7 µM in the assay with SK-OV-3 ovarian; more than 100 µM with SF-295 CNS; more than 100 µM in the assay on COLO 205 colon; more than 81.1 µM in the assay with U251 CNS; 26.8 µM in the assay on NCI-H522 lung. In addition, the TGI in the assay with LOX IMVI melanoma was more than 100 µM; in the assay with RXF 393 renal it was 33.7 µM; in the assay on OVCAR-3 ovarian, 10.4 µM; in the assay on HS 578T breast, 40 µM; in the assay on EKVX NSCLC, more than 42.6 µM; in the assay on DU-145 prostate, 32.3 µM. The TGI was more than 42 µM with UO-31 renal, more than 35.5 µM with MOLT-4 leukemia, more than 78.3 µM in the assay on SNB-19 CNS and more than 100 µM in the assay on MDA-MB-435.
With `C/C(=N/NC(=S)Nc1ccccc1C)c1ccccn1`, the TGI worked out at 6.51 µM in the assay with SN12C renal; 14.8 µM with SK-OV-3 ovarian; 5.63 µM in the assay on SF-295 CNS; 2.56 µM with COLO 205 colon; 18.1 µM in the assay with U251 CNS; 12.9 µM with NCI-H522 lung. Further, the TGI in the assay with LOX IMVI melanoma amounted to 15.7 µM; with RXF 393 renal, 13.2 µM; with OVCAR-3 ovarian, 9.47 µM; in the assay with HS 578T breast, 65.3 µM; in the assay with EKVX NSCLC it was 6.46 µM; in the assay with DU-145 prostate, 11.3 µM. Besides, the TGI with UO-31 renal amounted to 15.6 µM; with MOLT-4 leukemia it was 2.08 µM; in the assay with SNB-19 CNS it was 54.8 µM; with MDA-MB-435, 15.5 µM.
As for `Nc1ccc(-c2nnc(-c3c(Cl)c(Cl)c(Cl)c(Cl)c3-c3nc4ccc(C(=O)c5ccccc5)cc4[nH]3)o2)cc1`, the TGI in the assay on SN12C renal stood at 37.7 µM; in the assay on SK-OV-3 ovarian, 84.2 µM; in the assay on SF-295 CNS, 58.5 µM; in the assay on COLO 205 colon, 50.2 µM; with U251 CNS, 47.4 µM; in the assay with NCI-H522 lung, 47.9 µM. Moreover, the TGI in the assay with LOX IMVI melanoma was more than 100 µM; in the assay with RXF 393 renal it was 43.2 µM; in the assay on OVCAR-3 ovarian it was 62.6 µM; with HS 578T breast, more than 100 µM; with EKVX NSCLC it was 87.7 µM; with DU-145 prostate, 90.5 µM. Further, the TGI with UO-31 renal was more than 100 µM; with MOLT-4 leukemia, 66.7 µM; in the assay on SNB-19 CNS it was 67.4 µM; in the assay on MDA-MB-435 it was 75.8 µM.
For the molecule `Brc1ccc(N=C/C=C(\Nc2ccc(Br)cc2)C23CC4CC(CC(C4)C2)C3)cc1`, the TGI in the assay with SN12C renal was more than 64.2 µM; in the assay on SK-OV-3 ovarian, more than 100 µM; in the assay with SF-295 CNS, more than 92 µM; in the assay with COLO 205 colon it was 47.3 µM; in the assay on U251 CNS, 28.7 µM; with NCI-H522 lung it was 30.5 µM. Also, the TGI is 21.8 µM in the assay on LOX IMVI melanoma; 29 µM in the assay on RXF 393 renal; 28.9 µM with OVCAR-3 ovarian; more than 67.4 µM in the assay with HS 578T breast; 56.2 µM with EKVX NSCLC; 35.4 µM in the assay with DU-145 prostate. Also, the TGI is 34.6 µM in the assay with UO-31 renal, more than 72.8 µM in the assay with MOLT-4 leukemia, more than 100 µM in the assay with SNB-19 CNS and 24.7 µM in the assay on MDA-MB-435.
Regarding `Cc1ccc(OC2CC(n3cnc4c(=O)[nH]c(Br)nc43)OC2Oc2ccc(C)cc2)cc1` (stereo not drawn), the TGI was 56.5 µM in the assay with SN12C renal; more than 100 µM in the assay on SK-OV-3 ovarian; 61.9 µM with SF-295 CNS; 82.8 µM with COLO 205 colon; 79.9 µM with U251 CNS; 59.8 µM with NCI-H522 lung. The TGI with LOX IMVI melanoma is 72 µM; in the assay on RXF 393 renal, 60.5 µM; in the assay on OVCAR-3 ovarian it was 39.9 µM; with HS 578T breast it was 66.1 µM; in the assay with EKVX NSCLC, 62.8 µM; in the assay on DU-145 prostate, 53.9 µM. Also, the TGI stood at 38.4 µM with UO-31 renal, 50.5 µM with MOLT-4 leukemia, 49 µM with SNB-19 CNS and 57.1 µM in the assay with MDA-MB-435.
